# Patent US20230293518A1 (Edgewise Therapeutics, Inc., priority 2020, published 2023)
# Target: skeletal myofibrils (myosin ATPase)
# Test: Skeletal Myofibril ATPase Assay
# Format: biochemical
# Conditions: Table 4A
# Method: Example 12. Skeletal Myofibril ATPase Assay
# Overview: Myosin ATPase activity is assessed by using a coupled reaction system, in which ADP generated by the myosin ATPase function is coupled to the disappearance of NADH through the pyruvate kinase/lactate dehydrogenase (PK-LDH) system. ATPase activity produces ADP, which is used as a substrate for PK to produce pyruvate and regenerate ATP. The pyruvate is then used as a substrate by LDH to oxidize NADH to NAD+. The rate of the reaction is monitored through the time-dependent disappearance of NADH using absorbance at 340 nm. Inhibition of ATPase activity by the assayed compounds is indicated by a reduced rate of NADH loss, relative to vehicle-treated controls, over the experimental time window. To assess the selectivity of the assayed compounds for skeletal myofibrils, the compounds are counter-screened in cardiac myofibrils.
# Materials: The following stock solutions and reagents were used in the Skeletal Myofibril ATPase Assay:
# Stock Solutions of pCa buffer. Combine PIPES, CaCl2, and EGTA solutions with 70 mL of water. Adjust pH to 7.0 and bring final volume to 100 mL.
# Buffer A & Buffer B. Buffers were stored on ice until use.
# Skeletal Myofibril ATPase Assay Procedure: BSA, ATP, NADH, PEP, and DTT solutions were thawed at room temperature, then transferred to ice. Pellet-frozen myofibrils were transferred with approximately twice the required volume into a sufficiently large tube and capped. Myofibrils were thawed by rolling in a water bath for approximately 15 min at room temperature and cooled on ice. Buffers A and B were prepared by adjusting volumes as necessary for required number of wells and stored on ice. 0.5 μL of the compounds to be assayed were added into wells. 25 μL of Buffer A was dispensed into the wells, followed by 25 μL of Buffer B. The wells were measured for absorbance at 340 nm, using a kinetic protocol in which the wells are read every 1.5-2 min for 45 min. The slope of the data was approximated by subtracting the minimum absorbance value from the maximum value for each well. This was accomplished either in the SoftMax Pro software or in a spreadsheet program such as Excel. Using GraphPad Prism 8.0, the data was normalized by assigning a value of 100% to the 1% DMSO vehicle wells. Typically, a normalized 0% value was simply assigned to a (Max−Min) value of 0. The normalized data was fit to a Four Parameter Logistic sigmoidal equation, constraining the bottom to be 0 or greater. Compounds of Table 1, 2, and 3 were tested and results of the assay appear in Tables 4a-4c. A=IC50 is less than or equal to 10 μM; B═IC50 is greater than 10 μM and less than 100 μM; C═IC50 is greater than 100 μM.
row,Structure (SMILES),IC50 [µM]
1,"CCNC(=O)Cn1nc(-c2ccc(CC(F)(F)F)nc2)ccc1=O [Compound I-37, N-ethyl-2-(6-oxo-3-(6-(2,2,2-trifluoroethyl)pyridin-3-yl)pyridazin-1(6H)-yl)acetamide]",10 to 100
2,"O=C(Cn1nc(-c2ccc(NC34CC(C3)C4)nc2)ccc1=O)N1CCC1 [Compound I-39, 2-(2-(azetidin-1-yl)-2-oxoethyl)-6-(6-(bicyclo[1.1.1]pentan-1-ylamino)pyridin-3-yl)pyridazin-3(2H)-one]",10 to 100
3,"CCNC(=O)Cn1nc(-c2ccc(NC34CCC(CC3)CC4)nc2)ccc1=O [Compound I-41, 2-(3-(6-(bicyclo[2.2.2]octan-1-ylamino)pyridin-3-yl)-6-oxopyridazin-1(6H)-yl)-N-ethylacetamide]",10 to 100
4,"CCNC(=O)Cn1nc(-c2ccc(N3CC4CC(C3)O4)nc2)ccc1=O [Compound I-43, 2-(3-(6-(6-oxa-3-azabicyclo[3.1.1]heptan-3-yl)pyridin-3-yl)-6-oxopyridazin-1(6H)-yl)-N-ethylacetamide]",10 to 100
5,"CCNC(=O)Cn1nc(-c2ccc(NC3COC3)nc2)ccc1=O [Compound I-44, N-ethyl-2-(3-(6-(oxetan-3-ylamino)pyridin-3-yl)-6-oxopyridazin-1(6H)-yl)acetamide]",< 10
6,"CCNC(=O)Cn1nc(-c2ccc(NC)nc2)ccc1=O [Compound I-47, N-ethyl-2-(3-(6-(methylamino)pyridin-3-yl)-6-oxopyridazin-1(6H)-yl)acetamide]",< 10
7,"CCNC(=O)Cn1nc(-c2cnc(OCCOC(F)(F)F)nc2)ccc1=O [Compound I-49, N-ethyl-2-(6-oxo-3-(2-(2-(trifluoromethoxy)ethoxy)pyrimidin-5-yl)pyridazin-1(6H)-yl)acetamide]",10 to 100
8,"O=C(Cn1nc(-c2cnc(NC34CC(C3)C4)nc2)ccc1=O)NC1CCC1 [Compound I-50, 2-(3-(2-(bicyclo[1.1.1]pentan-1-ylamino)pyrimidin-5-yl)-6-oxopyridazin-1(6H)-yl)-N-cyclobutylacetamide]",< 10
9,"O=C(Cn1nc(-c2cnc(OCC(F)(F)F)nc2)ccc1=O)NC12CC(C1)C2 [Compound I-51, N-(bicyclo[1.1.1]pentan-1-yl)-2-(6-oxo-3-(2-(2,2,2-trifluoroethoxy)pyrimidin-5-yl)pyridazin-1(6H)-yl)acetamide]",< 10
10,"CCNC(=O)Cn1nc(-c2ccc(NC(C)(C)C)nc2)ccc1=O [Compound I-53, 2-(3-(6-(tert-butylamino)pyridin-3-yl)-6-oxopyridazin-1(6H)-yl)-N-ethylacetamide]",< 10
11,"O=C(Cn1nc(-c2ccc(NC34CC(C3)C4)nc2)ccc1=O)NC1CCC1 [Compound I-54, 2-(3-(6-(bicyclo[1.1.1]pentan-1-ylamino)pyridin-3-yl)-6-oxopyridazin-1(6H)-yl)-N-cyclobutylacetamide]",< 10
12,"CCNC(=O)Cn1nc(-c2cnc(NC34CC(F)(C3)C4)nc2)ccc1=O [Compound I-57, N-ethyl-2-(3-(2-((3-fluorobicyclo[1.1.1]pentan-1-yl)amino)pyrimidin-5-yl)-6-oxopyridazin-1(6H)-yl)acetamide]",< 10
13,"CCNC(=O)Cn1nc(-c2cnc(NC34CC(C3)C4)nc2)ccc1=O [Compound I-59, 2-[3-(2-[bicyclo[1.1.1]pentan-1-ylamino]pyrimidin-5-yl)-6-oxopyridazin-1-yl]-N-ethylacetamide]",< 10
14,"CCNC(=O)Cn1nc(-c2ccc(NC34CC(C)(C3)C4)nc2)ccc1=O [Compound I-60, N-ethyl-2-(3-(6-((3-methylbicyclo [1.1.1]pentan-1-yl)amino)pyridin-3-yl)-6-oxopyridazin-1(6H)-yl)acetamide]",< 10
15,"CCNC(=O)Cn1nc(-c2ccc(N(C)C3CCC3)nc2)ccc1=O [Compound I-61, 2-(3-(6-(cyclobutyl(methyl)amino)pyridin-3-yl)-6-oxopyridazin-1(6H)-yl)-N-ethylacetamide]",< 10
16,"CCNC(=O)Cn1nc(-c2ccc(SC)nc2)ccc1=O [Compound I-63, N-ethyl-2-(3-(6-(methylthio)pyridin-3-yl)-6-oxopyridazin-1(6H)-yl)acetamide]",< 10
17,"CCNC(=O)Cn1nc(-c2ccc(N(C)C34CC(C3)C4)nc2)ccc1=O [Compound I-64, 2-(3-(6-(bicyclo[1.1.1]pentan-1-yl(methyl)amino)pyridin-3-yl)-6-oxopyridazin-1(6H)-yl)-N-ethylacetamide]",< 10
18,"CC[C@@H](C)NC(=O)Cn1nc(-c2ccc(OC(F)F)nc2)ccc1=O [Compound I-66, (R)-N-(sec-butyl)-2-(3-(6-(difluoromethoxy)pyridin-3-yl)-6-oxopyridazin-1(6H)-yl)acetamide]",< 10

# The next lines start with the values.
row,IC50 [µM],Structure (SMILES)
1,< 10,"CCNC(=O)Cn1nc(-c2ccc(NC34CC(C3)C4)nc2)ccc1=O [Compound I-36, 2-[3-[6-([bicyclo[1.1.1]pentan-1-yl]amino)pyridin-3-yl]-6-oxo-1,6-dihydropyridazin-1-yl]-N-ethylacetamide]"
2,10 to 100,"CCNC(=O)Cn1nc(-c2ccc(N3CC(COC(F)(F)F)C3)nc2)ccc1=O [Compound I-40, N-ethyl-2-(6-oxo-3-(6-(3-((trifluoromethoxy)methyl)azetidin-1-yl)pyridin-3-yl)pyridazin-1(6H)-yl)acetamide]"
3,10 to 100,"CCNC(=O)Cn1nc(-c2cnc(NC34CC(O)(C3)C4)nc2)ccc1=O [Compound I-42, N-ethyl-2-(3-(2-((3-hydroxybicyclo[1.1.1]pentan-1-yl)amino)pyrimidin-5-yl)-6-oxopyridazin-1(6H)-yl)acetamide]"
4,> 100,"CCNC(=O)Cn1nc(-c2ccc(NC3CCOCC3)nc2)ccc1=O [Compound I-45, N-ethyl-2-(6-oxo-3-(6-((tetrahydro-2H-pyran-4-yl)amino)pyridin-3-yl)pyridazin-1(6H)-yl)acetamide]"
5,< 10,"O=C(Cn1nc(-c2ccc(NC34CC(C3)C4)nc2)ccc1=O)NC12CC(C1)C2 [Compound I-46, N-(bicyclo[1.1.1]pentan-1-yl)-2-(3-(6-(bicyclo[1.1.1]pentan-1-ylamino)pyridin-3-yl)-6-oxopyridazin-1(6H)-yl)acetamide]"
6,< 10,"CCNC(=O)Cn1nc(-c2ccc(N3CCCC3C(F)(F)F)nc2)ccc1=O (centres unmarked) [Compound I-48, N-ethyl-2-(6-oxo-3-(6-(2-(trifluoromethyl)pyrrolidin-1-yl)pyridin-3-yl)pyridazin-1(6H)-yl)acetamide]"
7,< 10,"O=C(Cn1nc(-c2ccc(NC3CCC3)nc2)ccc1=O)NC1CCC1 [Compound I-52, N-cyclobutyl-2-(3-(6-(cyclobutylamino)pyridin-3-yl)-6-oxopyridazin-1(6H)-yl)acetamide]"
8,10 to 100,"CCNC(=O)Cn1nc(-c2ccc(N3CC(OC(F)F)C3)nc2)ccc1=O [Compound I-55, 2-(3-(6-(3-(difluoromethoxy)azetidin-1-yl)pyridin-3-yl)-6-oxopyridazin-1(6H)-yl)-N-ethylacetamide]"
9,< 10,"O=C(Cn1nc(-c2ccc(OCC(F)(F)F)nc2)ccc1=O)NC1CCC1 [Compound I-56, N-cyclobutyl-2-(6-oxo-3-(6-(2,2,2-trifluoroethoxy)pyridin-3-yl)pyridazin-1(6H)-yl)acetamide]"
10,10 to 100,"CCNC(=O)Cn1nc(-c2ccc(NC34CC(CO)(C3)C4)nc2)ccc1=O [Compound I-58, N-ethyl-2-(3-(6-((3-(hydroxymethyl)bicyclo[1.1.1]pentan-1-yl)amino)pyridin-3-yl)-6-oxopyridazin-1(6H)-yl)acetamide]"
11,< 10,"CCNC(=O)Cn1nc(-c2ccc(NC3CCC3)nc2)ccc1=O [Compound I-62, 2-(3-(6-(cyclobutylamino)pyridin-3-yl)-6-oxopyridazin-1(6H)-yl)-N-ethylacetamide]"
12,> 100,"CCNC(=O)Cn1nc(-c2ccc(OC(F)F)[n+]([O-])c2)ccc1=O [Compound I-65, 2-(difluoromethoxy)-5-(1-(2-(ethylamino)-2-oxoethyl)-6-oxo-1,6-dihydropyridazin-3-yl)pyridine 1-oxide]"
13,< 10,"CC[C@H](C)NC(=O)Cn1nc(-c2ccc(OC(F)F)nc2)ccc1=O [Compound I-67, (S)-N-(sec-butyl)-2-(3-(6-(difluoromethoxy)pyridin-3-yl)-6-oxopyridazin-1(6H)-yl)acetamide]"
14,< 10,"O=C(Cn1nc(-c2ccc(OC(F)F)nc2)ccc1=O)NC1(c2ccccc2)CCC1 [Compound I-68, 2-(3-(6-(difluoromethoxy)pyridin-3-yl)-6-oxopyridazin-1(6H)-yl)-N-(1-phenylcyclobutyl) acetamide]"
